Assay results published in US8067599B2 (Hoffman-La Roche Inc., priority 2006, dated 2011).
Counter-ions that a name gives are not always drawn.

Assays:
[1] = target: T1, mouse full-length Src protein (Mus musculus, UniProt P05480); assay: IC50 determination for inhibitors of Src kinase (IMAP fluorescence polarization); assay type: biochemical; details: 24 uM ATP, 37° C., 60 minutes; read-out: IC50 Src kinase inhibition
T1 construct: mouse full-length Src protein
Protocol: Src assay was done using mouse full-length Src protein, fluorescein labeled peptide substrate (with a sequence of KVEKIGEGTYGVVYK) and quantified by Molecular Devices' IMAP fluorescence polarization technology. Compounds were tested in serially diluted concentrations in 384 well plates. Kinase reaction was performed in KAB Buffer (10 mM HEPES, pH 7, 50 mM NaCl, 5 mM MgCl2, 1 mM DTT, 0.1 mM NaVO4, 0.02% BSA), in the presence of 24 uM ATP, incubated at 37° C. for 60 minutes. Reaction was stopped by IMAP bead mix (at 1:400 dilution). After incubation at room temperature for 2 hours, the reaction product was analyzed on LJL Acquest (excitation 485 nm and Emission 530 nm).
(§1) FP reading (in mP) was used to calculate reaction rate. The assay was semi-automated by Tomtec Quadra workstation.

[2] = target: T2, fusion protein corresponding to mouse Abl (27-end) (Mus musculus, UniProt P00520); assay: IC50 determination for inhibitors of Abl kinase (IMAP fluorescence polarization); assay type: biochemical; details: 22.8 uM ATP, 37° C., 60 minutes; read-out: IC50 Abl kinase inhibition
T2 construct: fusion protein corresponding to mouse Abl (27-end)
T2 sequence (P00520 27-1123 limits assumed): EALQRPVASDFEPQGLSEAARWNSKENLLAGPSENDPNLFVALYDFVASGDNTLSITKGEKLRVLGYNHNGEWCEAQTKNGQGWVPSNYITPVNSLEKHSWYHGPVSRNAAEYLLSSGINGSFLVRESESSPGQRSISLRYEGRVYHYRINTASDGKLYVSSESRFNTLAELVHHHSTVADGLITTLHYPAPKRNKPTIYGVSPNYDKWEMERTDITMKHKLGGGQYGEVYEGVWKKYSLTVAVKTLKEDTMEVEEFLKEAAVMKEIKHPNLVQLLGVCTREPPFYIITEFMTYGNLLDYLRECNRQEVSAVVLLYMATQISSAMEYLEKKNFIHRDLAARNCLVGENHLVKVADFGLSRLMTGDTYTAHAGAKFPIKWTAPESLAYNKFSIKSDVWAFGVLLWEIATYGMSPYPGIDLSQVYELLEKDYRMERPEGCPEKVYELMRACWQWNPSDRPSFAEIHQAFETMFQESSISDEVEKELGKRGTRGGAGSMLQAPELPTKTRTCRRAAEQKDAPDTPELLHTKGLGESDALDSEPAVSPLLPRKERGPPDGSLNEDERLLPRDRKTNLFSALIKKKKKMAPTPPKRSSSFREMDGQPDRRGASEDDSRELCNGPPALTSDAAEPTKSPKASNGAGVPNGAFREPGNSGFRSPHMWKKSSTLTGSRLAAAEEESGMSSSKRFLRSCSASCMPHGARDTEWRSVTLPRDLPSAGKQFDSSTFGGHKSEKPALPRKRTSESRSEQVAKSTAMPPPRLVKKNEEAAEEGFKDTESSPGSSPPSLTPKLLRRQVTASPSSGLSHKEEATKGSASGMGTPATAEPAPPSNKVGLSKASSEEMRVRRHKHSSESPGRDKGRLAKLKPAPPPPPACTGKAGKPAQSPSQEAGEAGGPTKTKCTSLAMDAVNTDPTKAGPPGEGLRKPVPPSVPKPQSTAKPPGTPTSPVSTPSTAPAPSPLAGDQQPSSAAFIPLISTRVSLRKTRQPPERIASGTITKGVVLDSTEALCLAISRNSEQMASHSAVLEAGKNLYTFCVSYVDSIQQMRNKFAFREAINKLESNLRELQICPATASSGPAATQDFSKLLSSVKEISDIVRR
Protocol: Abl assay was done using fusion protein corresponding to mouse Abl (27-end), fluorescein labeled peptide substrate (with a sequence of EAIYAAPFAKKK) and quantified by Molecular Devices' IMAP fluorescence polarization technology. Compounds were tested in serially diluted concentrations in 384 well plates. Kinase reaction was performed in KAB Buffer (10 mM HEPES, pH 7, 50 mM NaCl, 5 mM MgCl2, 1 mM DTT, 0.1 mM NaVO4, 0.02% BSA), in the presence of 22.8 uM ATP, incubated at 37° C. for 60 minutes. Reaction was stopped by IMAP bead mix (at 1:400 diluted). After incubation at room temperature for 3 hours, the reaction product was analyzed on LJL Acquest (excitation 485 nm and Emission 530 nm).
FP reading (in mP) was used to calculate reaction rate. The assay was semi automated by Tomtec Quadra workstation.

HCT 116 cells = assay: CellTiter-Glo assay in HCT 116 cells (antiproliferative activity); assay type: cell-based; details: Homo sapiens, HCT-116, 120 h, cell viability after 5 days
Protocol: The CellTiter-Glo™ Luminescent Cell Viability Assay (Promega) is a homogeneous method of determining the number of viable cells in culture based on quantitation of the ATP present, which signals the presence of metabolically active cells.
HCT 116 cells (human colon carcinoma, ATCC-No. CCl-247) were cultivated in RPMI 1640 medium with GlutaMAX™ 1 (Invitrogen, Cat-No. 61870-010), 5% Fetal Calf Serum (FCS, Sigma Cat-No. F4135 (FBS)); 100 Units/ml penicillin/100 μg/ml streptomycin (=Pen/Strep from Invitrogen Cat. No. 15140). For the assay the cells were seeded in 384 well plates, 1000 cells per well, in the same medium. The next day the test compounds were added in various concentrations ranging from 30 μM to 0.0015 μM (10 concentrations, 1:3 diluted). After 5 days the CellTiter-Glo™ assay was done according to the instructions of the manufacturer (CellTiter-Glo™ Luminescent Cell Viability Assay, from Promega). In brief: the cell-plate was equilibrated to room temperature for approximately 30 minutes and than the CellTiter-Glo™ reagent was added. The contents were carefully mixed for 15 minutes to induce cell lysis. After 45 minutes the luminescent signal was measured in Victor 2, (scanning multiwell spectrophotometer, Wallac).
• Medium: RPMI 1640 with GlutaMAX™ 1 (Invitrogen, Cat-No. 61870), 5% FCS (Sigma Cat.-No. F4135), Pen/Strep (Invitrogen, Cat No. 15140). • HCT116 (ATCC-No. CCl-247): 1000 cells in 60 μl per well of 384 well plate (Greiner 781098, μClear-plate white) • After seeding incubate plates 24 h at 37° C., 5% CO2 2nd. Day: Induction (Treatment with Compounds, 10 Concentrations):
In order to achieve a final concentration of 30 μM as highest concentration 3.5 μl of 10 mM compound stock solution were added directly to 163 μl media. Then step e) of the dilution procedure described below, was followed.

[3] = target: human recombinant PDGFR beta (Homo sapiens, UniProt P09619); assay: IC50 determination for inhibitors of PDGFR kinase (IMAP fluorescence polarization); assay type: biochemical; details: 48 uM ATP, room temperature, 60 minutes, read-out: IC50 PDGFR kinase inhibition
Sequence of human recombinant PDGFR beta (P09619 33-1106): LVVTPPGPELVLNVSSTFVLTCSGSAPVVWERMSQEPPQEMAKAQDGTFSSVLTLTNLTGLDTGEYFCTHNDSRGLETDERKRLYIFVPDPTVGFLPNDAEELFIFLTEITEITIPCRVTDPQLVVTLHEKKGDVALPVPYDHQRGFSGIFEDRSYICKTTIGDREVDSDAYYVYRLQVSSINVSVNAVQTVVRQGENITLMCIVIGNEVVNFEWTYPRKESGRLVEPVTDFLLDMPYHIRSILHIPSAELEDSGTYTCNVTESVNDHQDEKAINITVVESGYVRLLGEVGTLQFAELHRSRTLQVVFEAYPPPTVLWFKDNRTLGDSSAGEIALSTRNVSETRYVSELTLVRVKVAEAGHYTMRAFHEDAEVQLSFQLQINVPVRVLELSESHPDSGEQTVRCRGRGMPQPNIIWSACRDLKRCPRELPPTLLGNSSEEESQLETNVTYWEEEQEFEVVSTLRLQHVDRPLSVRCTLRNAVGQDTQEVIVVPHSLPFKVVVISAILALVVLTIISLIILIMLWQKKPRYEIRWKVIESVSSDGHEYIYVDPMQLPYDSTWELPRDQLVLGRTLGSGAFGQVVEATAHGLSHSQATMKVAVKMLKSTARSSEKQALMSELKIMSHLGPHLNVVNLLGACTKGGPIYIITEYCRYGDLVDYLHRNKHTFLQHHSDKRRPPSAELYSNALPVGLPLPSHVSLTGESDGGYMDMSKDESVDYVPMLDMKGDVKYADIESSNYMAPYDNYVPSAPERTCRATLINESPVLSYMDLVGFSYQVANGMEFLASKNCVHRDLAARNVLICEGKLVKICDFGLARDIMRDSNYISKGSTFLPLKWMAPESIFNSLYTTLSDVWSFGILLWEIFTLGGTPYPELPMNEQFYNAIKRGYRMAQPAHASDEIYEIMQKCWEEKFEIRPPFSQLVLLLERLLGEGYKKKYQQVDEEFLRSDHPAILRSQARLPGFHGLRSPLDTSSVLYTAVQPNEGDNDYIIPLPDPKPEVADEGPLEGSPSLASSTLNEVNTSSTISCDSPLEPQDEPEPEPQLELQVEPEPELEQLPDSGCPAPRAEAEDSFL
Protocol: PDGFR assay was carried out with human recombinant PDGFR beta, fluorescein labeled peptide substrate (with a peptide sequence of ALTSNQEYLDLSMPL) and test compounds (in serial dilution) using 384-well plates. Kinase reaction was performed in MOPS buffer (20 mM MOPS pH 7.1, 5 mM Sodium Acetate, 6.25 mM MgCl2, 0.5 mM EDTA, 1 mM DTT, 0.04 mM NaVO4, 0.02% BSA), in the presence of 48 uM ATP, incubated at room temperature for 60 minutes. Reaction was stopped by IMAP Bead Binding System (Molecular Devices). After incubation at room temperature for 2 hours, the reaction product was analyzed on LJL Acquest.
as §1

T1 sequence (P05480 whole entry): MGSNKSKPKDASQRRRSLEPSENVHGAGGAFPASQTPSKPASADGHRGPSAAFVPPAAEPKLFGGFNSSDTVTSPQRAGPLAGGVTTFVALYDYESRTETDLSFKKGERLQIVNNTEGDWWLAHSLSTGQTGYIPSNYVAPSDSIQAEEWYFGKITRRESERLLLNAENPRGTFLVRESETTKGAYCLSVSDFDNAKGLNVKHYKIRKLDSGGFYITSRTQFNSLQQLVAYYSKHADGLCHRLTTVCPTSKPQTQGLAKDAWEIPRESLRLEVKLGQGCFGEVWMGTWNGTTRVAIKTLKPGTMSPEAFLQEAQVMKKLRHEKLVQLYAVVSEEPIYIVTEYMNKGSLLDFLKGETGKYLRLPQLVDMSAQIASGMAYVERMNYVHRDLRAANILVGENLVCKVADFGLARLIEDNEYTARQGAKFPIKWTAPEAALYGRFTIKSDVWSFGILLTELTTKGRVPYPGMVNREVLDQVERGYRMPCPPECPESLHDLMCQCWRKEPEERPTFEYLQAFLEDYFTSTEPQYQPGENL

Compound | IC50 [1] [nM] | IC50 [2] [nM] | IC50 (HCT 116 cells) [nM] | IC50 [3] [nM]
Cc1ccc(NC(=O)c2ccc(-c3ccccc3)cc2)cc1C(=O)Nc1cnc2[nH]cnc2c1 [Example 6-3, Biphenyl-4-carboxylic acid [3-(3H-imidazo[4,5-b]pyridin-6-ylcarbamoyl)-4-methyl-phenyl]-amide] | 5 to 1000 | – | – | –
CC(C)(C#N)c1cccc(C(=O)Nc2ccc(Cl)c(C(=O)Nc3cnc4[nH]ccc4c3)c2)c1 [Example 4-6, 2-Chloro-5-[3-(cyano-dimethyl-methyl)-benzoylamino]-N-(1H-pyrrolo[2,3-b]pyridin-5-yl)-benzamide] | – | 5 to 1000 | 100 to 10000 | –
Cc1c(C(=O)Nc2ccc(Cl)c(C(=O)Nc3cnc4[nH]ccc4c3)c2)cnn1-c1ccccc1 [Example 4-2, 5-Methyl-1-phenyl-1H-pyrazole-4-carboxylic acid [4-chloro-3-(1H-pyrrolo[2,3-b]pyridin-5-ylcarbamoyl)-phenyl]-amide] | 5 to 1000 | 5 to 1000 | – | –
CC(Sc1cccc(-c2ccc(C(=O)Nc3ccc(Cl)c(C(=O)Nc4cnc5[nH]ccc5c4)c3)cc2)c1)C(N)=O (stereo not drawn) [Example 1-2, 3′-(1-Carbamoyl-ethylsulfanyl)-biphenyl 4 carboxylic acid [4-chloro 3 (1H-pyrrolo[2,3-b]pyridin-5-ylcarbamoyl)-phenyl]-amide] | – | – | 100 to 10000 | –
O=C(Nc1ccc(Cl)c(C(=O)Nc2cnc3[nH]ccc3c2)c1)c1cccc(-c2ccccc2)c1 [Example 2-1, Biphenyl-3-carboxylic acid[4-chloro-3-(1H-pyrrolo[2,3-b]pyridin-5-ylcarbamoyl)-phenyl]-amide] | 5 to 1000 | 5 to 1000 | 100 to 10000 | 14
O=C(Nc1ccc(Cl)c(C(=O)Nc2cnc3[nH]ccc3c2)c1)c1cccc(N2CCOCC2)c1 [Example 4-3, 2-Chloro-5-(3-morpholin-4-yl-benzoylamino)-N-(1H-pyrrolo[2,3-b]pyridin-5-yl)-benzamide] | 5 to 1000 | 5 to 1000 | 100 to 10000 | –
Cc1ccc(NC(=O)c2cccc(-c3ccccc3)c2)cc1C(=O)Nc1cnc2[nH]cnc2c1 [Example 6-2, Biphenyl-3-carboxylic acid [3-(3H-imidazo[4,5-b]pyridin-6-ylcarbamoyl)-4-methyl-phenyl]-amide] | 5 to 1000 | – | – | 1120
CN(C)CCOc1cccc(-c2ccc(C(=O)Nc3ccc(Cl)c(C(=O)Nc4cnc5[nH]ccc5c4)c3)cc2)c1 [Example 1-1] | 5 to 1000 | 5 to 1000 | 1810 | 10 to 1000
O=C(Nc1ccc(Cl)c(C(=O)Nc2cnc3[nH]ccc3c2)c1)c1ccc(-c2ccccc2)cc1 [Example 2-2, Biphenyl-4-carboxylic acid [4-chloro-3-(1H-pyrrolo[2,3-b]pyridin-5-ylcarbamoyl)-phenyl]-amide] | 5 to 1000 | 63 | 100 to 10000 | 10 to 1000
CC(C)(C)Oc1ccc(C(=O)Nc2ccc(Cl)c(C(=O)Nc3cnc4[nH]ccc4c3)c2)cc1 [Example 4-5, 5-(4-tert-Butoxy-benzoylamino)-2-chloro-N-(1H-pyrrolo[2,3-b]pyridin-5-yl)-benzamide] | 5 to 1000 | 5 to 1000 | 380 | –
O=C(Nc1ccc(Cl)c(C(=O)Nc2cnc3[nH]ccc3c2)c1)c1cc(-c2ccccc2Cl)no1 [Example 4-1, 3-(2-Chloro-phenyl)-isoxazole-5-carboxylic acid[4-chloro-3-(1H-pyrrolo[2,3-b]pyridin-5-ylcarbamoyl)-phenyl]-amide] | – | 5 to 1000 | 100 to 10000 | –
O=C(Nc1ccc(N2CCOCC2)cc1)c1ccc(Cl)c(C(=O)Nc2cnc3[nH]ccc3c2)c1 [Example 7-1, 4-Chloro-N^1-(4-morpholin-4-yl-phenyl)-N^3-(1H-pyrrolo[2,3-b]pyridin-5-yl)-isophthalamide] | 5 to 1000 | 831 | – | 10 to 1000
Cc1ccc(NC(=O)c2ccccc2)cc1C(=O)Nc1cnc2[nH]cnc2c1 [Example 6-1, 5-benzoylamino-N-(3H-imidazo[4,5-b]pyridin-6-yl)-2-methyl-benzamide] | 10 | 5 to 1000 | – | –
Cc1n[nH]c(C)c1-c1ccccc1C(=O)Nc1ccc(Cl)c(C(=O)Nc2cnc3[nH]ccc3c2)c1 [Example 3-1] | 5 to 1000 | – | – | –
COc1ccc([C@H]2C[C@@H]2C(=O)Nc2ccc(Cl)c(C(=O)Nc3cnc4[nH]ccc4c3)c2)cc1 [Example 4-7, 2-Chloro-5-{[(1S,2S)-2-(4-methoxy-phenyl)-cyclopropanecarbonyl]-amino}-N-(1H-pyrrolo[2,3-b]pyridin-5-yl)-benzamide] | – | – | 100 to 10000 | –
COc1ccccc1/C=C/C(=O)Nc1ccc(Cl)c(C(=O)Nc2cnc3[nH]ccc3c2)c1 [Example 4-4, 2-Chloro-5-[(E)-3-(2-methoxy-phenyl)-acryloylamino]-N-(1H-pyrrolo[2,3-b]pyridin-5-yl)-benzamide] | – | – | 100 to 10000 | –

Next, values leading:

IC50 [1] [nM] | IC50 [2] [nM] | IC50 (HCT 116 cells) [nM] | IC50 [3] [nM] | Compound
– | – | 100 to 10000 | – | O=C(N[C@H]1C[C@@H]1c1ccccc1)c1ccc(Cl)c(C(=O)Nc2cnc3[nH]ccc3c2)c1 [Example 8-3, 4-Chloro-N^1-((1S,2R)-2-phenyl-cyclopropyl)-N^3-(1H-pyrrolo[2,3-b]pyridin-5-yl)-isophthalamide hydrochloride]
– | – | 100 to 10000 | – | O=C(Nc1cccc(-n2cccn2)c1)c1ccc(Cl)c(C(=O)Nc2cnc3[nH]ccc3c2)c1 [Example 8-5, 4-Chloro-N^1-(3-pyrazol-1-yl-phenyl)-N^3-(1H-pyrrolo[2,3-b]pyridin-5-yl)-isophthalamide hydrochloride]
– | – | 100 to 10000 | – | O=C(Nc1nc2c(c(C(F)(F)F)n1)CCCC2)c1ccc(Cl)c(C(=O)Nc2cnc3[nH]ccc3c2)c1 [Example 8-2, 4-Chloro-N^3-(1H-pyrrolo[2,3-b]pyridin-5-yl)-N^1-(4-trifluoromethyl-5,6,7,8-tetrahydro-quinazolin-2-yl)-isophthalamide hydrochloride]
– | – | 100 to 10000 | – | O=C(Nc1ccc(Oc2ccccc2)nc1)c1ccc(Cl)c(C(=O)Nc2cnc3[nH]ccc3c2)c1 [Example 8-1, 4-Chloro-N^1-(6-phenoxy-pyridin-3-yl)-N^3-(1H-pyrrolo[2,3-b]pyridin-5-yl)-isophthalamide hydrochloride]
– | – | 100 to 10000 | – | CC(C)(C#N)c1cccc(NC(=O)c2ccc(Cl)c(C(=O)Nc3cnc4[nH]ccc4c3)c2)c1 [Example 8-7, 4-Chloro-N^1-[3-(cyano-dimethyl-methyl)-phenyl]-N^3-(1H-pyrrolo[2,3-b]pyridin-5-yl)-isophthalamide hydrochloride]
– | – | 100 to 10000 | – | CN1C(=O)CSc2cc(NC(=O)c3ccc(Cl)c(C(=O)Nc4cnc5[nH]ccc5c4)c3)ccc21 [Example 8-8, 4-Chloro-N^1-(4-methyl-3-oxo-3,4-dihydro-2H-benzo[1,4]thiazin-7-yl)-N^3-(1H-pyrrolo[2,3-b]pyridin-5-yl)-isophthalamide hydrochloride]
